Positions count from the first letter of the chain named. Values joined by “and” are separate entries in the source; they are usually repeats but may differ in a detail not shown here. Equal entries are not always repeated. Square brackets hold non-standard residues; d marks the D form. Peptide text beside a SMILES is read from it. * marks the point of attachment. FITC = O=C1OC2(c3ccc(O)cc3Oc3cc(O)ccc32)c2ccc(NC(=S)*)cc21; Nle = CCCC[C@H](N)C(=O)O; For = O=C*
Assays:
FPR1 haplotype CH4 = target: T1, FPR1 haplotype CH4 (Homo sapiens, UniProt P21462, I11T); assay: FACScan saturation binding of fNLFNYK–FITC, CH4 cells; conditions: CHO-Gα16 cells, 4°C, 1 h
T1 construct: Vectors including FPR1 ORFs were transfected into CHO-Gα16 cells; expressed in transfected cells
T1 sequence (P21462 1-350 I11T): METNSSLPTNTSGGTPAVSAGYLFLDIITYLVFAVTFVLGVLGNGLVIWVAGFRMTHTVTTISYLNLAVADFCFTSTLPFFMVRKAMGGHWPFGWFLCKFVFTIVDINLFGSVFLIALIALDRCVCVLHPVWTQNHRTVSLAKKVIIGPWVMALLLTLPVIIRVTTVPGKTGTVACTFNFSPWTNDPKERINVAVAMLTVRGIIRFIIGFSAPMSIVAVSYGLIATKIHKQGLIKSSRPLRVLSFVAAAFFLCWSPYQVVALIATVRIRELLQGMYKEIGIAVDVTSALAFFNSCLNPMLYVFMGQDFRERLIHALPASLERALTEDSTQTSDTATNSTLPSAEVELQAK
Protocol: (§1) Stable clones expressing FPR1 haplotypes were selected after 10 days of culture under the selection of 600 μg/ml G418 and identified by FACScan analysis after binding of 20 nM of the fluorescent ligand fNLFNYK–FITC to the CHO cell transfectants for 45 min at 4°C.
(§2) CHO cells were added to 3 mM KCl, 100 mM NaCl, 10 mM sodium phosphate, 1 mM Mg^2+ and 1 mM Ca^2+, pH 7.4, containing 5% fetal bovine serum and incubated at 4°C for 1 h with various concentrations of fNLFNYK–FITC. The mean fluorescence of the cells was determined after subtracting the readout of cells without fNLFNYK–FITC. The results were analysed by non-linear least squares analysis to determine Kd and Bmax values. […] Data from at least two different experiments in duplicate were analysed.

FPR1 haplotype CH12 = target: T2, FPR1 haplotype CH12 (Homo sapiens, UniProt P21462, V101L); assay: FACScan saturation binding of fNLFNYK–FITC, CH12 cells; conditions: CHO-Gα16 cells, 4°C, 1 h
T2 construct: expressed in transfected cells
T2 sequence (P21462 1-350 V101L): T1 sequence (P21462 1-350 I11T) with T11I, V101L
Protocol: as §1, §2

FPR1 haplotype CH3 = target: T3, FPR1 haplotype CH3 (Homo sapiens, UniProt P21462, E346A/I11T/N192K); assay: FACScan saturation binding of fNLFNYK–FITC, CH3 cells; conditions: CHO-Gα16 cells, 4°C, 1 h
T3 construct: Vectors including FPR1 ORFs were transfected into CHO-Gα16 cells; expressed in transfected cells
T3 sequence (P21462 1-350 I11T/N192K/E346A): T1 sequence (P21462 1-350 I11T) with N192K, E346A
Protocol: as §1, §2

FPR1 haplotype CH11 = target: T4, FPR1 haplotype CH11 (Homo sapiens, UniProt P21462); assay: FACScan saturation binding of fNLFNYK–FITC, CH11 cells; conditions: CHO-Gα16 cells, 4°C, 1 h
T4 construct: expressed in transfected cells
T4 sequence (P21462 1-350): T1 sequence (P21462 1-350 I11T) with T11I
Protocol: (§3) Transfection of FPR1 haplotype cDNAs into CHO-Gα16 cells was carried out with the Gene Pulser Xcell Electroporation System from Bio-Rad Laboratories. […] Vectors containing the ORFs of the human FPR1 gene (8 μg in a volume of 8 μl) were added to the cells. Following a 280 V and 20 ms pulse (squarewave), the cells were immediately returned to 10 ml of culture medium and incubated for 24 h. Stable clones expressing FPR1 haplotypes were selected after 10 days of culture under the selection of 600 μg/ml G418 and identified by FACScan analysis after binding of 20 nM of the fluorescent ligand fNLFNYK–FITC to the CHO cell transfectants for 45 min at 4°C.
as §2

FPR1 haplotype CH6 = target: T5, FPR1 haplotype CH6 (Homo sapiens, UniProt P21462, E346A/I11T/R190W); assay: FACScan saturation binding of fNLFNYK–FITC, CH6 cells; conditions: CHO-Gα16 cells, 4°C, 1 h
T5 construct: Vectors including FPR1 ORFs were transfected into CHO-Gα16 cells; expressed in transfected cells
T5 sequence (P21462 1-350 I11T/R190W/E346A): T1 sequence (P21462 1-350 I11T) with R190W, E346A
Protocol: as §1, §2

FPR1 haplotype CH10 = assay: FACScan saturation binding of fNLFNYK–FITC, CH10 cells; parameters: species or system human; conditions: CHO-Gα16 cells, 4°C, 1 h
Protocol: as §1, §2

FPR1 haplotype CH9 = target: T6, FPR1 haplotype CH9 (Homo sapiens, UniProt P21462, E346A/I11T/R190W/V101L); assay: FACScan saturation binding of fNLFNYK–FITC, CH9 cells; conditions: CHO-Gα16 cells, 4°C, 1 h
T6 construct: expressed in transfected cells
T6 sequence (P21462 1-350 I11T/V101L/R190W/E346A): T1 sequence (P21462 1-350 I11T) with V101L, R190W, E346A
Protocol: as §1, §2

FPR1 haplotype CH2 = target: T7, FPR1 haplotype CH2 (Homo sapiens, UniProt P21462, E346A/I11T); assay: FACScan saturation binding of fNLFNYK–FITC, CH2 cells; conditions: CHO-Gα16 cells, 4°C, 1 h
T7 construct: Vectors including FPR1 ORFs were transfected into CHO-Gα16 cells; expressed in transfected cells
T7 sequence (P21462 1-350 I11T/E346A): T1 sequence (P21462 1-350 I11T) with E346A
Protocol: as §1, §2

FPR1 haplotype CH7 = assay: FACScan saturation binding of fNLFNYK–FITC, CH7 cells; parameters: species or system human; conditions: CHO-Gα16 cells, 4°C, 1 h
Protocol: as §1, §2

FPR1 haplotype CH1 = target: T8, FPR1 haplotype CH1 (Homo sapiens, UniProt P21462, E346A/I11T/V101L); assay: FACScan saturation binding of fNLFNYK–FITC, CH1 cells; conditions: CHO-Gα16 cells, 4°C, 1 h
T8 construct: Vectors including FPR1 ORFs were transfected into CHO-Gα16 cells; expressed in transfected cells
T8 sequence (P21462 1-350 I11T/V101L/E346A): T1 sequence (P21462 1-350 I11T) with V101L, E346A
Protocol: as §1, §2

FPR1 haplotype CH8 = target: T9, FPR1 haplotype CH8 (Homo sapiens, UniProt P21462, I11T/V101L); assay: FACScan saturation binding of fNLFNYK–FITC, CH8 cells; conditions: CHO-Gα16 cells, 4°C, 1 h
T9 construct: Vectors including FPR1 ORFs were transfected into CHO-Gα16 cells; expressed in transfected cells
T9 sequence (P21462 1-350 I11T/V101L): T1 sequence (P21462 1-350 I11T) with V101L
Protocol: as §1, §2

FPR1 haplotypes = assay: FACScan binding of fNLFNYK–FITC, different FPR1 haplotypes; parameters: species or system human; conditions: different FPR1 haplotypes CH1–CH12
Protocol: as §3, §2

FPR1 haplotype CH5 = target: T10, FPR1 haplotype CH5 (Homo sapiens, UniProt P21462, E346A/I11T/N192K/V101L); assay: FACScan saturation binding of fNLFNYK–FITC, CH5 cells; conditions: CHO-Gα16 cells, 4°C, 1 h
T10 construct: Vectors including FPR1 ORFs were transfected into CHO-Gα16 cells; expressed in transfected cells
T10 sequence (P21462 1-350 I11T/V101L/N192K/E346A): T1 sequence (P21462 1-350 I11T) with V101L, N192K, E346A
Protocol: as §1, §2

[1] = tested on: CHO-Gα16-FPR1 haplotype-expressing cells; assay: Calcium mobilization by fMLF, four cell lines; assay type: cell-based, human; conditions: CH1, CH2, CH3 and CH5 cells; different concentrations of fMLF
Protocol: A calcium mobilization assay was performed as described previously with minor modifications [33]. Briefly, CHO-Gα16-FPR1 cells were plated on to 96-well plates at a density of 15000 cells in 100 μl of medium per well and incubated for 24 h. Cells were loaded with 5 μM Fluo-4/AM in HBSS (Hanks balanced saline solution) supplemented with 2.5 mM probenecid for 45 min and then washed twice with HBSS.

CHO-Gα16-FPR1 cells = assay: fMLF-induced ERK1/2 phosphorylation, CHO-Gα16-FPR1 cells; assay type: cell-based, human; conditions: fMLF 10 nM, 5 min, Western blot
Protocol: Activation of the p44/p42 MAPKs (ERK1/2) was determined as described previously [12] with modest modifications. Briefly, cells were cultured in 24-well plates at 5×10^5 cells/well for 24 h and serum starved for 2 h. They were pretreated with the indicated amounts of cyclosporins for 5 min before fMLF (10 nM) stimulation in HBSS/BSA. […] Samples were transferred to microcentrifuge tubes and sonicated twice for 5 s each to disperse DNA contents. After boiling, samples were analysed by SDS/PAGE and Western blotting using anti-ERK1/2 and anti-phospho-ERK1/2 antibodies at a 1:1000 dilution. Horseradish peroxidase-conjugated anti-rabbit antibody (1:3000 dilution) was used as the secondary antibody. The resulting immunocomplex was visualized using the SuperSignal West Pico chemiluminescence kit (Pierce Biotechnology) according to the manufacturer's instructions. The relative intensities of the bands from the PVDF membrane (Millipore) were quantified using the ChemDoc MP System (Bio-Rad) and Image-Pro Plus software (MediaCybernetics).

| Bmax (FPR1 haplotype CH4) | Bmax (FPR1 haplotype CH12) | Bmax (FPR1 haplotype CH3) | Bmax (FPR1 haplotype CH11) | Bmax (FPR1 haplotype CH6) | Bmax (FPR1 haplotype CH9) | Bmax (FPR1 haplotype CH2) | Bmax (FPR1 haplotype CH1) | Bmax (FPR1 haplotype CH8) | receptor affinity of fNLFNYK–FITC (in words) (FPR1 haplotypes) | Bmax (FPR1 haplotype CH5) | Compound | Kd (FPR1 haplotype CH10; CH10 (T11/L101/W190/N192/E346), pH 7.4, FACScan, at least two experiments in duplicate) [nM] | Bmax (FPR1 haplotype CH10; CH10, FACScan) | Kd (FPR1 haplotype CH7; CH7 (T11/V101/R190/K192/E346), pH 7.4, FACScan, at least two experiments in duplicate) [nM] | Bmax (FPR1 haplotype CH7; CH7, FACScan) | calcium mobilization (in words) [1] | phosphorylation of ERK1/2 (in words) (CHO-Gα16-FPR1 cells) |
| --- | --- | --- | --- | --- | --- | --- | --- | --- | --- | --- | --- | --- | --- | --- | --- | --- | --- |
| 33860 and 33860±4977 | 65059 and 65059±3570 | 59135±4185 | 37713±5841 | 34093±693 | 39009±6672 | 47657±9098 | 48336±4553 | 36362±353 | varied moderately | 42575±4902 | CCCC[C@H](NC=O)C(=O)N[C@@H](CC(C)C)C(=O)N[C@@H](Cc1ccccc1)C(=O)N[C@@H](CCCC)C(=O)N[C@@H](Cc1ccc(O)cc1)C(=O)N[C@@H](CCCCNC(=S)Nc1ccc2c(c1)C(=O)OC21c2ccc(O)cc2Oc2cc(O)ccc21)C(=O)O [fNLFNYK–FITC, N-formyl-Nle-Leu-Phe-Nle-Tyr-Lys–FITC] (For-[Nle]LF[Nle]YK(FITC)-OH; N-terminus and C-terminus assumed) | 2.4 ± 0.3 | 41751±615 | 1.7 ± 0.3 | 60688±10388 | – | – |
| – | – | – | – | – | – | – | – | – | – | – | N-formyl-methionyl-leucyl-phenylalanine [fMLF] | – | – | – | – | elicited calcium mobilization dose-dependently | significant increase |

— paper PMC3632010, “V101L of human formyl peptide receptor 1 (FPR1) increases receptor affinity and augments the antagonism mediated by cyclosporins” (Biochemical Journal, 2013)
